# Measured values from patent US10501741B2, “Methods and compositions for inhibiting growth and epithelial to mesenchymal transition (EMT) in cancer cells” (Cold Spring Harbor Laboratory, priority 2014, dated 2019).
# “Also recorded” adds a separate entry of the source.
# Legend:
# [1] = test system: HOP62 cells; assay: p53Ψ silencing in HOP62 cells (morphology, qRT-PCR of EMT markers); assay type: cell-based, human
# Text: Representative micrographs are presented showing cells 4 days after transfection with a mixture of two independent siRNA oligonucleotides targeting p53. […] No difference in Snail expression was observed. Data shown represent relative expression levels compared to actin (mean±SD, n=6; p<0.0001, Student's t-test) as measured by SYBR-green-based real-time RT-PCR. […] Level of expression of p53FL and p53Ψ in MCF7 are provided in FIGS. 11B and 10E, respectively. FIG. 4D presents qRT-PCR analysis of the canonical EMT markers E-cadherin (ECAD) and vimentin (VIM) as well as the EMT master regulators Snail, Slug, Twist, and Zeb1, in H1299 cells ectopically expressing p53Ψ or p53FL. Data shown represent relative expression levels compared to actin (mean±SD, n=6; p<0.0001, Student's t-test) as measured by SYBR-green-based real-time RT-PCR. FIG. 4E depicts the percent wound closure at the indicated time points in a 2D monolayer of A549 cells expressing p53Ψ, p53FL, or vector control. […] Filter chambers were coated with 40 μl Matrigel, and invasion was assessed after 30 hours. TGF-β treated cells were used as a positive control.
# Somatic alterations of the p53 tumor suppressor gene located on chromosome 17p often occur in cancers and are associated with poor prognosis. In these tumors, p53 mutations disable p53-mediated inhibition of proliferation and promotion of apoptosis in response to stress. In addition, missense p53 mutations may have gain-of-function activities that lead to an increased metastatic spread. […] To test this hypothesis p53Ψ expression was silenced in HOP62 cells. These mesenchymal cells are homozygous for the c.673−2A to G mutation and inherently express exclusively a p53Ψ-like isoform (FIG. 2I and FIG. 9O). […] Cells in which p53Ψ expression was silenced lost the elongated appearance typical of mesenchymal-like cells and instead acquired a cobblestone morphology characteristic of epithelial cells (FIG. 4A).
# [2] = test system: A549 cells expressing p53Ψ; assay: epistasis experiment: CypD silencing and NAC, E-cadherin Western blot; assay type: cell-based, human
# Protocol: (§1) Data shown represent relative expression compared to ectopic expression of a vector control (mean±SD, n=6; p<0.0001, Student's t-test). […] Cells were also treated with 10 mM NAC for 5 days. The cell extracts were probed for E-cadherin, p53, CypD, and as a control GAPDH. […] Cells were treated with 10 mM NAC or 500 μM Tempol for 5 days, then extracts were probed for E-cadherin, p53 and GAPDH as indicated. […] Cells were grown in the presence or absence of NAC (10 mM). After 5 days, the invasive potential of cells was determined using a standard Matrigel invasion assay. Filter chambers were coated with 40 μl Matrigel and invasion was assessed after 30 hours.
# To exclude the possibility that ROS-induced EMT was independent of CypD in p53Ψ-expressing cells, epistasis experiments were performed. Specifically, E-cadherin expression was measured upon manipulation of ROS levels (e.g. by NAC treatment) in cells ectopically expressing p53Ψ in the presence and absence of CypD (FIG. 13B). If CypD and p53Ψ act on parallel pathways, an additive effect of CypD silencing and ROS inhibition would be predicted. In contrast, if p53Ψ acts solely through CypD, then CypD silencing would be sufficient to reduce ROS levels and no additive effect would be observed. […] This in turn is necessary and sufficient for p53Ψ-induced EMT (FIG. 7F, right panel).
# [3] = test system: cells ectopically expressing p53Ψ (A549, MCF7, H1299); assay: EMT induction by p53Ψ upon modulation of CypD; assay type: cell-based, human
# Protocol: (§2) To determine whether CypD and ROS have a causative role in EMT mediated by p53Ψ, CypD and ROS levels were modulated in cells ectopically expressing p53Ψ (A549, MCF7, H1299) and their effects on expression of EMT markers and cell invasion were assessed.
# [4] = test system: A549 cells expressing p53Ψ; assay: MitoSOX staining of mitochondrial superoxide; assay type: cell-based, human; conditions: MitoSOX 1 μM
# Protocol: FIG. 6A presents Western blot analysis of mitochondrial fractions of A549 cells ectopically expressing p53Ψ. The fractions were immunoprecipitated with a CypD-specific antibody and probed with a p53 N-terminal antibody, or CypD and Smurf1 antibodies as controls. […] FIG. 6B depicts a schematic of the calcein AM assay. […] The fluorescence was detected by laser confocal microscopy after 15 minutes. Non-mitochondrial calcein fluorescence was quenched by co-treatment with CoCl2. Treatment with the ionophore ionomycin (50 nM) was used as a control. […] FIG. 6D presents the % decrease in calcein fluorescence upon quenching of cytosolic calcein with CoCl2 in three independent experiments. The median calcein fluorescence was assessed by FACS. Calcein was loaded at 10 nM and detected after 15 minutes at 515 nm upon excitation with Red HeNe at 495 nm. Treatment with ionomycin was used as a control to estimate basal fluorescence. FIG. 6E presents representative fluorescence microscopy images of A549 cells loaded with MitoSOX (1 μM). Images show the fluorescence upon excitation at 390 nm, mainly from the hydroxyethidium derivative. DAPI was used as a counterstain. FIG. 6F presents the quantification of the MitoSox-positive fractions in three independent FACS experiments from FIG. 6E. […]
# [5] = test system: MCF7 cells ectopically expressing p53Ψ; assay: real-time PCR of EMT markers in MCF7 cells; assay type: cell-based, human; conditions: CsA 2 mM for 5 days
# [6] = test system: H1299 cells ectopically expressing p53Ψ; assay: qRT-PCR of EMT markers in H1299 cells; assay type: cell-based, human; conditions: 2 mM CsA for 5 days
# [7] = test system: A549 cells ectopically expressing p53Ψ; assay: wound healing (cell motility) assay; assay type: cell-based, human; conditions: 2 mM CsA for 5 days, closure at 48 hours
# Protocol: (§3) FIG. 7A presents Western blot analysis of A549 cells ectopically expressing p53Ψ upon transfection with two independent siRNA targeting cyclophilin D (CypD). […] Data represent expression levels compared to actin (mean±SD, n=6; p<0.0001, Student's t-test) as measured by SYBR-green-based real-time RT-PCR. […] Cell motility was measured in a standard wound healing experiment. […] Each bar represents the average of four individual wounds. […] Data represent relative expression compared to the vector control (mean±SD, n=6; p<0.0001, Student's t-test). […] Cells were treated for 5 days with 10 mM NAC. FIG. 7F presents a schematic of a proposed mechanism of the p53Ψ-induced EMT. Upon acute oxidative stress, p53FL was previously shown to interact with CypD and trigger necrotic cell death by opening mPTP pore (left panel).
# as §2
# [8] = test system: E-cadherin; assay: E-cadherin mRNA upon H2O2 treatment (SYBR-green real-time RT-PCR); assay type: cell-based
# Protocol: as §3, §2
# [9] = test system: A549 cells ectopically expressing p53Ψ; assay: Matrigel invasion assay; assay type: cell-based, human; conditions: NAC 10 mM, 5 days, invasion assessed after 30 hours
# Protocol: as §1, §2
# [10] = test system: A549 cells ectopically expressing p53Ψ; assay: E-cadherin expression with ROS scavengers; assay type: cell-based, human; conditions: 10 mM NAC or 500 μM Tempol for 5 days
# Protocol: as §3
# Data shown represent relative expression compared to ectopic expression of a vector control (mean±SD, n=6; p<0.0001, Student's t-test). […] After 5 days, the invasive potential of cells was determined using a standard Matrigel invasion assay. Filter chambers were coated with 40 μl Matrigel and invasion was assessed after 30 hours.
# as §2
# [11] = test system: mitochondrial permeability transition pore (mPTP) in A549 cells expressing p53Ψ; assay: calcein AM assay of mPTP permeability; assay type: cell-based, human; conditions: ionomycin 50 nM, control; all experimental settings
# Text: In this assay, cells are loaded with Calcein (acetomethylester) together with its quencher Cobalt ions. Calcein freely diffuses throughout the cell including into the mitochondrial matrix. But the Cobalt quencher cannot diffuse across the inner mitochondrial membrane, therefore quenching Calcein fluorescence everywhere except in the mitochondrial matrix. Thus, Calcein fluorescence comes only from the matrix. Only upon PTP opening will Cobalt ions gain access to the matrix and quench Calcein, resulting in a sharp drop of mitochondrial fluorescence, which can be measured by FACS or microscopy (FIG. 6B).
compound,measurement,setting,value
"p53 siRNA: siRNA GGGTTAGTTTACAATCAGC (SEQ ID NO:5); GGTGAACCTTAGTACCTAA (SEQ ID NO:6), from Invitrogen (listed as DNA, chemistry not given here)",cell morphology,[1]; 4 days after transfection with two siRNA targeting p53,loss of mesenchymal-like features and the acquisition of an epithelial morphology
same,Snail expression,[1]; p53 siRNA,No difference
same,expression of E-cadherin,[1]; p53Ψ knockdown,increased expression of E-cadherin
same,"expression of vimentin, Zeb1, Twist and Slug",[1]; p53Ψ knockdown,diminished expression
"CypD siRNA: siRNA AGGCAGATGTCGTCCCAAA (SEQ ID NO:10); CGACTTCACCAACCACAAT (SEQ ID NO:11), from Invitrogen (listed as DNA, chemistry not given here)",p53Ψ-induced EMT,[2]; CypD silenced,blocked p53Ψ-induced EMT
same,EMT in cells expressing p53Ψ,[3],sufficient to prevent EMT
cyclosporin A [CsA],MitoSOX fluorescence (mitochondrial superoxide),[4],decreased
same,expression of E-cadherin (real-time PCR),[5],restore expression of E-cadherin to levels similar to parental cells
same,expression of EMT markers (real-time PCR),[5],reduce expression of EMT markers
same,expression of E-cadherin (qRT-PCR),[6],restore expression of E-cadherin to a level similar to that observed in control cells
same,expression of EMT markers (qRT-PCR),[6],reduce expression of EMT markers
same,cell motility (wound healing),[7],diminish cell motility
same,EMT in cells expressing p53Ψ,[3],sufficient to prevent EMT
OO [H2O2],cell viability,[8]; low doses of H2O2,without compromising cell viability
same,expression of E-cadherin,[8]; low doses of H2O2 for 5 days,decreased the expression of E-cadherin
"CC(=O)N[C@@H](CS)C(=O)O [NAC, N-acetyl cysteine]",invasive capabilities (Matrigel invasion),[9],decreased invasive capabilities; also recorded: sufficient to decrease the invasion capabilities
same,E-cadherin expression in cells in which CypD was silenced,"[2]; CypD siRNA, 10 mM NAC for 5 days",did not increase E-cadherin expression
same,expression of E-cadherin,[10],augmented expression of E-cadherin
CC1(C)CC(O)CC(C)(C)N1[O] [Tempol],invasive capabilities (Matrigel invasion),[9],decreased invasive capabilities
same,expression of E-cadherin,[10],augmented expression of E-cadherin
C[C@H](CCC(=O)O)C[C@H](C)C[C@H](C)C(=O)/C=C(\O)[C@H](C)C[C@H](C)C/C=C/[C@@H](C)[C@@H](O)[C@@H](C)[C@@H](O)C[C@@H]1CC[C@@](C)([C@H]2CC[C@@](C)([C@@H](C)O)O2)O1 [ionomycin],mitochondria calcein fluorescence,[11],rapid loss of mitochondria calcein fluorescence
